Experimental data published in ChEMBL document CHEMBL5143523, “Construction and activity evaluation of novel benzodioxane derivatives as dual-target antifungal inhibitors” (Eur J Med Chem, 2022).
Converted amounts (≈) assume the structure as drawn. The source made the active and inactive calls. The rule behind the calls is not given here.

Columns and labels:
Pichia kudriavzevii = assay: Antifungal activity against Candida krusei ATCC 6258 assessed as fungal growth inhibition measured after 72 hrs by CLSI protocol based liquid medium dilution method; type: functional
Candida albicans [1] = assay: Antifungal activity against fluconazole resistant Candida albicans strain 17# assessed as fungal growth inhibition measured after 72 hrs by CLSI protocol based liquid medium dilution method; type: functional
Candida albicans [2] = assay: Antifungal activity against fluconazole resistant Candida albicans strain CaR assessed as fungal growth inhibition measured after 72 hrs by CLSI protocol based liquid medium dilution method; type: functional
Candida albicans [3] = assay: Antifungal activity against fluconazole resistant Candida albicans strain 901 assessed as fungal growth inhibition measured after 72 hrs by CLSI protocol based liquid medium dilution method; type: functional
Candida albicans [4] = assay: Antifungal activity against fluconazole resistant Candida albicans strain 904 assessed as fungal growth inhibition measured after 72 hrs by CLSI protocol based liquid medium dilution method; type: functional
Candida albicans [5] = assay: Induction of apoptosis in Candida albicans ATCC SC5314 cells assessed as early apoptotic cells at 8 ug/ml incubated for 72 hrs by Annexin V-FITC/PI staining based flow cytometry method (reference value: 0.56%); type: functional; conditions: dose 8 µg/ml
Candida albicans [6] = assay: Induction of apoptosis in Candida albicans ATCC SC5314 cells assessed as necrotic cells at 8 ug/ml incubated for 72 hrs by Annexin V-FITC/PI staining based flow cytometry method (reference value: 3.76%); type: functional; conditions: dose 8 µg/ml
Candida albicans [7] = assay: Induction of apoptosis in Candida albicans ATCC SC5314 cells assessed as late apoptotic cells at 8 ug/ml incubated for 72 hrs by Annexin V-FITC/PI staining based flow cytometry method (reference value: 0.12%); type: functional; conditions: dose 8 µg/ml
Candida albicans [8] = assay: Antifungal activity against Candida albicans ATCC SC5314 assessed as change in lanosterol level at 4 ug/ml incubated for 48 hrs by LC-MS analysis (reference value: 3.7%); type: functional; conditions: dose 4 µg/ml
Candida albicans [9] = assay: Induction of morphological changes in Candida albicans assessed as structural damage in fungal cell wall at 4 ug/ml measured after 48 hrs by TEM analysis; type: functional, organism-based; conditions: dose 4.0 µg/ml
Candida albicans [10] = assay: Induction of morphological changes in Candida albicans assessed as decrease in osmotic pressure of cells at 4 ug/ml measured after 72 hrs by TEM analysis; type: functional, organism-based; conditions: dose 4.0 µg/ml
Candida albicans [11] = assay: Induction of morphological changes in Candida albicans assessed as disappearance of endoplasmic reticulum at 4 ug/ml measured after 72 hrs by TEM analysis; type: functional, organism-based; conditions: dose 4.0 µg/ml
Mus musculus = assay: In vivo antifungal activity against Candida albicans ATCC SC5314 infected mouse model assessed as reduction in nuclear aggregation at 4 mg/kg, ip administered ever other day for 12 days by hematoxyin-eosin staining based microscopic analysis; type: functional, organism-based; conditions: time 12.0 day
[12] = Toxicity in mouse infected with Candida albicans ATCC SC5314 assessed as pathological changes in spleen at 4 mg/kg, ip administered ever other day for 12 days by hematoxylin and eosin staining based histopathological analysis; type: organism-based; conditions: in vivo, 288 h, time 12 day

CC(C)[C@H](NC(=O)c1cccc2c1OCCO2)C(=O)N[C@@H](Cn1cncn1)c1ccccc1
MIC50 (Pichia kudriavzevii): 0.25 µg/mL (≈ 0.556 µM) | MIC50 (Candida albicans [1]): 1 µg/mL (≈ 2.22 µM) | MIC50 (Candida albicans [2]): 0.5 µg/mL (≈ 1.11 µM) | MIC50 (Candida albicans [3]): 1 µg/mL (≈ 2.22 µM) | MIC50 (Candida albicans [4]): 2 µg/mL (≈ 4.45 µM) | Activity (Candida albicans [5]): 0.41% | Activity (Candida albicans [6]): 43.31% | Activity (Candida albicans [7]): 1.78% | Activity (Candida albicans [8]): 16.4% | Activity (Candida albicans [9]): Active | Activity (Candida albicans [10]): Active | Activity (Candida albicans [11]): Active | Activity (Mus musculus): Active | Activity [12]: Non-Toxic
